The source of these data is BindingDB's records for doi:10.1021/bi00180a024 (Medical University of South Carolina, 1994).

What is called Ki is the equilibrium dissociation constant of an inhibitor or competing ligand from its target. A high value points to a looser hold on the target.

This test concerns the target T1, 5-hydroxytryptamine receptor 1A (Homo sapiens, UniProt P08908).
T1 sequence (P08908 whole entry): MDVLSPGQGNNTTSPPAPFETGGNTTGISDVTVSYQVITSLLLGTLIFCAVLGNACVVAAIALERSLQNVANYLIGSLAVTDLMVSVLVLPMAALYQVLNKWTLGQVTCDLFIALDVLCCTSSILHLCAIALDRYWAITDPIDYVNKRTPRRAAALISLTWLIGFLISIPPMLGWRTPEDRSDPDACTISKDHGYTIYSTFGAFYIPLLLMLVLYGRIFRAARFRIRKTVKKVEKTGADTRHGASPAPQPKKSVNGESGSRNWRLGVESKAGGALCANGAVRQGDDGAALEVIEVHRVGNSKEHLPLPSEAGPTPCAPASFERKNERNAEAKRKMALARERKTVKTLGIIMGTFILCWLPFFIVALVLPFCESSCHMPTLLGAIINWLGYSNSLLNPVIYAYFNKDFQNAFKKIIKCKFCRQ

On to `O=C1c2ccccc2S(=O)(=O)N1CCCCN1CCN(c2ncccn2)CC1` [1,1-Dioxo-2-[4-(4-pyrimidin-2-yl-piperazin-1-yl)-butyl]-1,2-dihydro-1lambda*6*-benzo[d]isothiazol-3-one], for which the inhibition constant Ki is 130 nM.
